We go through 14 compounds from ChEMBL document CHEMBL1159318, “Anti-inflammatory and anti-tumor-promoting effects of cucurbitane glycosides from the roots of Bryonia dioica” (J Nat Prod, 2002).

The subject of series [1] is Raji. In words: Inhibition of TPA-induced EBV-early antigen activation in human Raji cells at 500 molar ratio after 48 hrs relative to TPA; values are per cent of control. The settings on record: human gammaherpesvirus 4.
Series [2] has as its system Raji. Description: Inhibition of TPA-induced EBV-early antigen activation in human Raji cells at 1000 molar ratio after 48 hrs relative to TPA; values are per cent of control. The settings on record: human gammaherpesvirus 4.
Series [3] relates to Raji. Description: Inhibition of TPA-induced EBV-early antigen activation in human Raji cells at 100 molar ratio after 48 hrs relative to TPA; values are per cent of control. Particulars: human gammaherpesvirus 4.
The subject of series [4] is Raji. Description: Inhibition of TPA-induced EBV-early antigen activation in human Raji cells at 10 molar ratio after 48 hrs relative to TPA; values are per cent of control. The settings on record: human gammaherpesvirus 4.
Series [5] can be described thus: Cytotoxicity against human Raji cells assessed as cell viability at 1000 molar ratio after 48 hrs by trypan blue assay. In kind it is cell-based. Particulars: read-out: Activity.
Series [6] concerns Mus musculus. Description: Antiinflammatory activity against ICR mouse assessed as inhibition ratio of TPA-induced ear edema at 1 mg/ear, topically preincubated 30 mins before TPA challenge relative to TPA. Type of series: functional. Also noted: scale not given: the % may be the effect or the level left.
The test system of series [7] is Mus musculus. Description: Antiinflammatory activity against ICR mouse assessed as inhibition of TPA-induced ear edema compound administered topically preincubated 30 mins before TPA challenge. In kind it is functional.

In the case of `C[C@H](CC[C@@H](O)C(C)(C)O[C@@H]1O[C@H](CO)[C@@H](O)[C@H](O)[C@H]1O)[C@H]1CC[C@@]2(C)[C@@H]3CC=C4[C@@H](CC[C@H](O)C4(C)C)[C@]3(C)C(=O)C[C@]12C` [BRYONIOSIDE A], the level, % of control is 30.4% in series [1], 3.4% in series [2], 75.1% in series [3] and 100% in series [4]. Moreover, the viability at 48 h, 1000 molar ratio in series [5] was 60%.

Consider `C[C@H](CC[C@@H](O)C(C)(C)O)[C@H]1CC[C@@]2(C)[C@@H]3CC=C4[C@@H](CC[C@H](O)C4(C)C)[C@]3(C)C(=O)C[C@]12C` [BRYODULCOSIGENIN], for which the level, % of control is 23.6% in series [1], 0% in series [2], 69.3% in series [3] and 88.9% in series [4]. Also, the viability at 48 h, 1000 molar ratio in series [5] amounted to 70%.

Turning to `C[C@H](C(O)CC(O)C(C)(C)O[C@@H]1O[C@H](CO)[C@@H](O)[C@H](O)[C@H]1O)[C@H]1CC[C@@]2(C)[C@@H]3CC=C4[C@@H](CC[C@H](O)C4(C)C)[C@]3(C)C(=O)C[C@]12C` (stereo not given in full) [BRYONIOSIDE E], the level, % of control in series [1] was 37%; in series [2], 11.6%; in series [3] it was 77.2%; in series [4] it was 100%. In series [6], the Activity turned out to be 94%. The ID50 in series [7] stood at 0.2 mg. For the same compound, the viability at 48 h, 1000 molar ratio in series [5] came out at 60%.

Consider `C[C@H](CC[C@@H](O)C(C)(C)O)[C@H]1CC[C@@]2(C)[C@@H]3C[C@@H]4O[C@]45[C@@H](CC[C@H](O[C@@H]4O[C@H](CO)[C@@H](O)[C@H](O)[C@H]4O)C5(C)C)[C@]3(C)C(=O)C[C@]12C` [5ALPHA,6ALPHA-EPOXYCABENOSIDE D], for which the level, % of control in series [1] turned out to be 28.6%; in series [2], 0%; in series [3], 70%; in series [4] it was 95.3%. Moreover, in series [5], the viability at 48 h, 1000 molar ratio was 60%.

`O=c1c(O)c(-c2ccc(O)c(O)c2)oc2cc(O)cc(O)c12` [QUERCETIN]: the Activity in series [6] was 40%. For the same compound, in series [7], the ID50 is on record as 1.6 mg.

For `CC1=C(/C=C/C(C)=C/C=C/C(C)=C/C=C/C=C(C)/C=C/C=C(C)/C=C/C2=C(C)CCCC2(C)C)C(C)(C)CCC1`, the level, % of control in series [1] came to 34.2%; in series [2] it was 8.6%; in series [3] it was 82.1%; in series [4] it was 100%.

On to `COc1ccc2c(c1)c(CC(=O)O)c(C)n2C(=O)c1ccc(Cl)cc1` [INDOMETHACIN], for which, in series [6], the Activity was found to be 96%. Further, the ID50 in series [7] is listed as 0.3 mg.

`CC(=O)O[C@@H]1[C@@H](O)[C@@H](O)[C@H](O[C@H]2[C@H](O[C@H]3CC[C@@H]4C(=CC[C@@H]5[C@@]4(C)C(=O)C[C@]4(C)[C@@H]([C@H](C)CC[C@@H](O)C(C)(C)O)CC[C@@]54C)C3(C)C)O[C@H](CO)[C@@H](O)[C@@H]2O)O[C@H]1C` [BRYONIOSIDE C]: the level, % of control in series [1] stood at 30.2%; in series [2] it was 0%; in series [3], 73.5%; in series [4] it was 100%. Also, the Activity in series [6] amounted to 83%. In series [7], the ID50 is on record as 0.3 mg. Also, the viability at 48 h, 1000 molar ratio in series [5] came to 60%.

As for `CC(C)(O)CCC(=O)[C@@](C)(O)[C@H]1[C@H](O)C[C@@]2(C)[C@@H]3CC=C4[C@@H](C=C(O[C@@H]5O[C@H](CO)[C@@H](O)[C@H](O)[C@H]5O)C(=O)C4(C)C)[C@]3(C)C(=O)C[C@]12C` [BRYOAMARIDE], the level, % of control in series [1] was found to be 28.7%; in series [2], 0%; in series [3], 71.7%; in series [4], 96%. In addition, the Activity in series [6] is recorded as 51%. Besides, the ID50 in series [7] is 0.7 mg. For the same compound, in series [5], the viability at 48 h, 1000 molar ratio was 60%.

Turning to `C[C@H](CC[C@@H](O)C(C)(C)O)[C@H]1CC[C@@]2(C)[C@@H]3CC=C4[C@@H](CC[C@H](O[C@@H]5O[C@H](CO)[C@@H](O)[C@H](O)[C@H]5O[C@@H]5O[C@@H](C)[C@H](O)[C@@H](O)[C@H]5O)C4(C)C)[C@]3(C)C(=O)C[C@]12C` [BRYONIOSIDE B], the level, % of control in series [1] is 29.9%; in series [2], 0%; in series [3], 72.7%; in series [4], 97.4%. Also, the Activity in series [6] is on record as 94%. The ID50 in series [7] is on record as 0.2 mg. Also, in series [5], the viability at 48 h, 1000 molar ratio was 60%.

For the compound `C[C@H](CCC(=O)C(C)(C)O)[C@H]1CC[C@@]2(C)[C@@H]3CC=C4[C@@H](CC[C@H](O[C@@H]5O[C@H](CO)[C@@H](O)[C@H](O)[C@H]5O)C4(C)C)[C@]3(C)C(=O)C[C@]12C` [BRYONIOSIDE F], the level, % of control in series [1] amounted to 29.2%; in series [2], 0%; in series [3], 71.4%; in series [4], 97.6%. In addition, in series [5], the viability at 48 h, 1000 molar ratio was determined as 60%.

In the case of `C[C@H](CCC(=O)C(C)(C)O)[C@H]1CC[C@@]2(C)[C@@H]3CC=C4[C@@H](CC[C@H](O)C4(C)C)[C@]3(C)C(=O)C[C@]12C` [BRYOSIGENIN], the level, % of control turned out to be 28.9% in series [1], 0% in series [2], 73.5% in series [3] and 92.7% in series [4]. Further, in series [5], the viability at 48 h, 1000 molar ratio was found to be 70%.

`C[C@H](CC[C@@H](O)C(C)(C)O)[C@H]1CC[C@@]2(C)[C@@H]3CC=C4[C@@H](CC[C@H](O[C@@H]5O[C@H](CO)[C@@H](O)[C@H](O)[C@H]5O)C4(C)C)[C@]3(C)C(=O)C[C@]12C` [CABENOSIDE D]: the level, % of control in series [1] is 26.1%; in series [2], 0%; in series [3], 69.3%; in series [4] it was 94.1%. Further, the Activity in series [6] is on record as 66%. Besides, the ID50 in series [7] turned out to be 0.6 mg. Also, the viability at 48 h, 1000 molar ratio in series [5] worked out at 60%.

As to `C[C@H](CCC(=O)C(C)(C)O)[C@H]1CC[C@@]2(C)[C@@H]3CC=C4[C@@H](CC[C@H](O[C@@H]5O[C@H](CO)[C@@H](O)[C@H](O)[C@H]5O[C@@H]5O[C@@H](C)[C@H](O)[C@@H](O)[C@H]5O)C4(C)C)[C@]3(C)C(=O)C[C@]12C` [BRYONIOSIDE G], the level, % of control worked out at 30.6% in series [1], 0% in series [2], 74.2% in series [3] and 100% in series [4]. Further, in series [6], the Activity was 90%. Besides, the ID50 in series [7] was 0.2 mg. The viability at 48 h, 1000 molar ratio in series [5] turned out to be 60%.
